Measured values as given in patent publication US9084420B2, “Amide derivative, pest control agent containing the amide derivative, and pest controlling method” (Mitsui Chemicals Agro, Inc., priority 2008, dated 2015).

Assays:
Assay type in all cases: in vivo
Plutella xylostella = test: Pesticidal test against Plutella xylostella (cabbage leaf immersion); conditions: 144 h, 3-stage larvae on treated cabbage leaf, 25° C., after 6 days, read-out: pesticidal rate
Spodoptera litura [1] = test: Pesticidal test of penetration migration against Spodoptera litura (radish seedling root immersion); conditions: 72 h, radish seedling root immersed 2 days, leaf fed to 2-stage larvae, 25° C., after 3 days, read-out: pesticidal rate
Method: Pesticidal Test of Penetration Migration against Spodoptera litura A root portion of a radish seedling was immersed for 2 days in a chemical solution in which a test compound had been diluted at a predetermined concentration, then the leaf was cut and put into a 7 cm polyethylene cup having a filter paper laid on the bottom thereof, and 2-stage larvae of Spodoptera litura were released. They were left to stand in a thermostatic chamber at 25° C., and the numbers of the living pests and the dead pests were examined after 3 days. The test was carried out with five larvae per group in two replicates.

Spodoptera litura [2] = test: Pesticidal test against Spodoptera litura (cabbage leaf immersion); conditions: 144 h, 2-stage larvae on treated cabbage leaf, 25° C., after 6 days, read-out: pesticidal rate
Musca domestica = test: Pesticidal test against Musca domestica (petri dish residue); conditions: 24 h, acetone solution dried in petri dish, female adults, 25° C., after 1 day, read-out: pesticidal rate
Method: Pesticidal Test Against Musca domestica
1 ml of an acetone solution in which a test compound had been diluted at a predetermined concentration was added dropwise to a petri dish having a diameter of 9 cm, and air-dried, and then the female adults of Musca domestica were released and the petri dish was capped. They were left to stand in a thermostatic chamber at 25° C., and the numbers of the living pests and the dead pests were examined after 1 day. The test was carried out with […] in two replicates.

CNC(=O)CCN(C(=O)c1ccccc1)c1cccc(C(=O)Nc2c(I)cc(C(F)(C(F)(F)F)C(F)(F)F)cc2C(F)(F)F)c1 [5-86, N-(3-(2-iodo-4-(perfluoropropan-2-yl)-6-(trifluoromethyl)phenylcarbamoyl)phenyl)-N-(3-(methylamino)-3-oxopropyl)benzamide]
≥ 70%: pest or weed control at 100 ppm (Plutella xylostella) | pest or weed control at 1 ppm (Spodoptera litura [1]) | pest or weed control at 100 ppm (Spodoptera litura [2]) | pest or weed control at 1000 ppm (Musca domestica)

CCOC(=O)NC(=O)CCN(C(=O)c1ccc(C#N)cc1)c1cccc(C(=O)Nc2c(Br)cc(C(F)(C(F)(F)F)C(F)(F)F)cc2C(F)(F)F)c1F [5-76, ethyl 3-(N-(3-(2-bromo-4-(perfluorophan-2-yl)-6-(trifluoromethyl)phenylcarbamoyl)-2-fluorophenyl)-4-cyanobenzamide)propanoylcarbamate]
≥ 70%: pest or weed control at 100 ppm (Plutella xylostella) | pest or weed control at 1 ppm (Spodoptera litura [1]) | pest or weed control at 100 ppm (Spodoptera litura [2]) | pest or weed control at 1000 ppm (Musca domestica)

N#Cc1ccc(C(=O)N(CCC(N)=O)c2cccc(C(=O)Nc3c(Br)cc(C(F)(C(F)(F)F)C(F)(F)F)cc3C(F)(F)F)c2F)cc1 [1-136, 3-(N-(3-amino-3-oxopropyl)-4-cyanobenzamide)-N-(2-bromo-4-(perfluoropropan-2-yl)-6-(trifluoromethyl)phenyl)-2-fluorobenzamide]
≥ 70%: pest or weed control at 100 ppm (Plutella xylostella) | pest or weed control at 1 ppm (Spodoptera litura [1]) | pest or weed control at 100 ppm (Spodoptera litura [2]) | pest or weed control at 1000 ppm (Musca domestica)
